Reference: US5527832A, “Antiinflammatory and analgesic transdermal gel” (priority 1994, dated 1996)

Legend:
[1] = Gastric ulcer formation (Experiment 4); format: in vivo, male Sprague-Dawley rats; conditions: 10 mg/kg
Procedure: Male Sprague-Dawley rats weighing around 200 g were used as the test animals. […] As a reference, the rats of the control group were administrated ketoprofen orally as a suspension in physiological saline at the dose of 10 mg/kg. Six hours after the administration, the rats were sacrificed and ulcer formation in the stomach was scored as follows: 0; normal, 1; reddened mucosa, 2; one to four small ulcer (smaller than 2 mm in diameter). 3; more than four small ulcer or one large ulcer (larger than 2 mm in diameter), 4; more than one large ulcer. The score of two or higher was regarded as ulcer formation.

[2] = postdose, oral administration to rats; cited from earlier work

Row | Compound | Average ulcer score ([1]; rat, in vivo, po) | No. of rat ulcer is produced ([1]; rat, in vivo, po) | No. of rat ulcer is produced ([1]; oral, 6 h after administration) | Average ulcer score ([1]; oral, 6 h after administration, score 0-4) | Time of maximum concentration of ketoprofen [2] [h]
1 | CC(C(=O)O)c1ccc(-c2ccccc2)c(F)c1 (stereo not shown) [flurbiprofen] | 2.46 | 5/6 | – | – | –
2 | CC(C)Cc1ccc(C(C)C(=O)O)cc1 (stereo not shown) [ibuprofen] | 2.53 | 6/6 | – | – | –
3 | CC(C(=O)O)c1cccc(C(=O)c2ccccc2)c1 (stereo not shown) [ketoprofen] | – | – | 6/6 | 2.91 | 0.25 to 0.5
